Laboratory results reported in patent publication US20210171948A1, “COMPOSITIONS AND METHODS FOR TARGETING GLYPICAN-2 IN THE TREATMENT OF CANCER” (Shepherd Therapeutics, Inc., priority 2019, published 2021).
Strand notation (5' to 3'): a small letter for the sugar, then the base; units joined by * are phosphorothioate-linked, units joined directly phosphodiester-linked; [ ] holds rarer units or linkages, { } end groups; capitals alone tell only the bases. d = 2'-deoxy (DNA); r = 2'-OH (RNA)

Tests used:
[1] = test system: SH-SY5Y cells; experiment: Doxorubicin IC50 in siRNA-transfected cells, Cell Titer Glo viability (Example 8); format: cell-based; details: for IC50: SH-SY5Y cells transfected with the labelled siRNA, doxorubicin added 24 hours post transfection, 72 hour incubation
Protocol: (§1) GPC2 mRNA expression was reduced and changes in cell viability were assessed in multiple neuroblastoma cell lines. Cells were transfected with either a control siRNA or with GPC-2 siRNA sequences 3, 5 or 7 from Table 7 using the RNAiMAX Lipofectamine kit (Invitrogen, Carlsbad, Calif.) as previously described in 96 wells for viability assays. Doxorubicin was added at increasing concentrations (0-5 uM) to transfected cells at 24 hours post transfection. Following a 72 hour incubation period, viability measurements were made using Cell Titer Glo.

[2] = test system: CHP212 cells; experiment: as above; format: cell-based; details: for Data Summary: effect of knockdown on sensitivity to doxorubicin: CHP212; for IC50: CHP212 cells transfected with the labelled siRNA, doxorubicin added 24 hours post transfection, 72 hour incubation
Protocol: as §1

[3] = test system: SK-N-BE2 cells; experiment: as above; format: cell-based; details: for Data Summary: effect of knockdown on sensitivity to doxorubicin: SK-N-BE2; for IC50: SK-N-BE2 cells transfected with the labelled siRNA, doxorubicin added 24 hours post transfection, 72 hour incubation
Protocol: as §1

[4] = test system: CHLA-90 cells; experiment: as above; format: cell-based; details: for Data Summary: effect of knockdown on sensitivity to doxorubicin: CHLA-90; for IC50: CHLA-90 cells transfected with the labelled siRNA, doxorubicin added 24 hours post transfection, 72 hour incubation
Protocol: as §1

[5] = test system: SH-SY5Y cells; experiment: Carboplatin IC50 in siRNA-transfected cells, Cell Titer Glo 2.0 viability (Example 6); format: cell-based; details: for Data Summary: effect of knockdown on sensitivity to carboplatin: SH-SY5Y; for IC50: SH-SY5Y cells transfected with the labelled siRNA, carboplatin added 24 hours post transfection, 72 hour incubation
Protocol: (§2) GPC2 mRNA expression was reduced using the indicated siRNAs and changes in cell viability were assessed in multiple neuroblastoma cell lines. Cells were transfected with either a control siRNA or with GPC2 siRNA sequences 3, 5 or 7 from Table 7 using the RNAiMAX Lipofectamine kit (Invitrogen, Carlsbad, Calif.) as previously described in 96 wells for viability assays. Carboplatin was added at increasing concentrations (0 to 150 uM) to transfected cells at 24 hours post transfection. Following a 72 hour incubation period, viability measurements were made using Cell Titer Glo 2.0.

[6] = test system: CHP212 cells; experiment: as above; format: cell-based; details: for Data Summary: effect of knockdown on sensitivity to carboplatin: CHP212; for IC50: CHP212 cells transfected with the labelled siRNA, carboplatin added 24 hours post transfection, 72 hour incubation
Protocol: as §2

[7] = test system: SK-N-BE2 cells; experiment: as above; format: cell-based; details: for Data Summary: effect of knockdown on sensitivity to carboplatin: SK-N-BE2; for IC50: SK-N-BE2 cells transfected with the labelled siRNA, carboplatin added 24 hours post transfection, 72 hour incubation
Protocol: as §2

[8] = test system: CHLA-90 cells; experiment: as above; format: cell-based; details: for Data Summary: effect of knockdown on sensitivity to carboplatin: CHLA-90; for IC50: CHLA-90 cells transfected with the labelled siRNA, carboplatin added 24 hours post transfection, 72 hour incubation
Protocol: as §2

[9] = test system: GPC2 mRNA; experiment: GPC2 mRNA knockdown in neuroblastoma cell lines, representative data from a separate experiment (Tables 10-14); format: cell-based, human; parameters: concentration or dose not given beside the values
[10] = test system: SH-SY5Y cells; experiment: Cyclophosphamide IC50 in siRNA-transfected cells, Cell Titer Glo 2.0 viability (Example 7); format: cell-based; details: for Data Summary: effect of knockdown on sensitivity to cyclophosphamide: SH-SY5Y; for IC50: SH-SY5Y cells transfected with the labelled siRNA, cyclophosphamide added 24 hr post transfection, 72 hour incubation
Protocol: (§3) GPC2 mRNA expression was reduced with the indicated siRNAs and changes in cell viability were assessed in multiple neuroblastoma cell lines. Cells were transfected with either a control siRNA or with GPC2 siRNA sequences 3, 5 or 7 from Table 7 using the RNAiMAX Lipofectamine kit (Invitrogen, Carlsbad, Calif.) as previously described in 96 wells for viability assays. Cyclophosphamide was added at increasing concentrations (0-20 uM) to transfected cells at 24 hr post transfection. Following a 72 hour incubation period, viability measurements were made using Cell Titer Glo 2.0.

[11] = test system: CHP212 cells; experiment: as above; format: cell-based; details: for Data Summary: effect of knockdown on sensitivity to cyclophosphamide: CHP212; for IC50: CHP212 cells transfected with the labelled siRNA, cyclophosphamide added 24 hr post transfection, 72 hour incubation
Protocol: as §3

[12] = test system: SK-N-BE2 cells; experiment: as above; format: cell-based; details: for Data Summary: effect of knockdown on sensitivity to cyclophosphamide: SK-N-BE2; for IC50: SK-N-BE2 cells transfected with the labelled siRNA, cyclophosphamide added 24 hr post transfection, 72 hour incubation
Protocol: as §3

[13] = test system: CHLA-90 cells; experiment: as above; format: cell-based; details: for Data Summary: effect of knockdown on sensitivity to cyclophosphamide: CHLA-90; for IC50: CHLA-90 cells transfected with the labelled siRNA, cyclophosphamide added 24 hr post transfection, 72 hour incubation
Protocol: as §3

[14] = test system: GPC2 mRNA; experiment: GPC2 mRNA knockdown in neuroblastoma cell lines (Example 4); format: cell-based, human; details: for Time point at which GPC2 mRNA knockdown was first observed: CHP212, SH-SY5Y and CHLA90 neuroblastoma cell lines; for Degree of GPC2 knockdown among sequences 3, 5, 6-11: CHP212 neuroblastoma cell line, 96 hour incubation (FIG. 4A)
Protocol: GPC2 mRNA knockdown was assessed in multiple neuroblastoma cell lines. Cells were transfected with either a scrambled control siRNA, with GPC2 siRNA sequences 3 or 5 from Table 7, or with siRNA sequences generated by Dharmacon (sequences 12-15 from Table 7) using the RNAiMAX Lipofectamine kit (Invitrogen, Carlsbad, Calif.) as previously described. Following a 96 hour incubation period, total RNA samples were collected to compare knockdown efficiency and viability was measured in parallel plated cells.
The extent of GPC2 mRNA reduction was assessed with additional GPC2 siRNA sequences in the CHP212 neuroblastoma cell line. Cells were transfected with either a scrambled control siRNA or with GPC2 siRNA sequences 3 or 5, or with siRNA sequences 6-11 (Sigma) using the RNAiMAX Lipofectamine kit (Invitrogen, Carlsbad, Calif.) as previously described. Following a 96 hour incubation period, total RNA samples were collected and viability was measured in parallel plated cells.
The extent of GPC2 mRNA reduction (knockdown) and corresponding protein level expression changes were assessed in three neuroblastoma cell lines following siRNA knockdown of GPC2. The CHP212 neuroblastoma cell line (FIG. 5A and FIG. 5D), the SH-SY5Y neuroblastoma cell line (FIG. 5B and FIG. 5E) and the CHLA90 neuroblastoma cell line (FIG. 5C and FIG. 5F) were transfected with GPC2 siRNA sequences 5 and 7 from Table 7 and a scrambled control siRNA using the RNAiMAX Lipofectamine kit (Invitrogen, Carlsbad, Calif.) as previously described. Following a 24, 48, or 72 hour incubation period, cells were washed and total RNA was isolated for measuring GPC2 mRNA expression. For protein analysis, cells were fixed, immunostained using an antibody against GPC2 protein, protein expression was measured via flow cytometry. As shown, GPC2 mRNA knockdown was observed beginning at the 24 hr time point and lasted for at least 72 hours. GPC2 protein expression started to decrease at the 48 hr time point.

[15] = CHLA-90, compared to scrambled siRNA control
[16] = CHLA-136, compared to scrambled siRNA control
[17] = CHLA-172, compared to scrambled siRNA control
[18] = CHP212, compared to scrambled siRNA control
[19] = KELLY, compared to scrambled siRNA control
[20] = SH-SY5Y, compared to scrambled siRNA control
[21] = SK-N-BE2, compared to scrambled siRNA control
[22] = SKNAS, compared to scrambled siRNA control
[23] = CHLA90 neuroblastoma cells (FIG. 5C)
[24] = CHP212 neuroblastoma cells (FIG. 5A)
[25] = SH-SY5Y neuroblastoma cells (FIG. 5B)

Substance | IC50 [1] [nM] | Data Summary: effect of knockdown on sensitivity to doxorubicin [2] | IC50 [2] [nM] | Data Summary: effect of knockdown on sensitivity to doxorubicin [3] | IC50 [3] [nM] | Data Summary: effect of knockdown on sensitivity to doxorubicin [4] | IC50 [4] [nM] | Data Summary: effect of knockdown on sensitivity to carboplatin [5] | IC50 [5] [nM] | Data Summary: effect of knockdown on sensitivity to carboplatin [6] | IC50 [6] [nM] | Data Summary: effect of knockdown on sensitivity to carboplatin [7] | IC50 [7] [nM] | Data Summary: effect of knockdown on sensitivity to carboplatin [8] | IC50 [8] [nM] | % KD; percent GPC2 mRNA reduction (knockdown) [9, 15] [%] | % KD; percent GPC2 mRNA reduction (knockdown) [9, 16] [%] | % KD; percent GPC2 mRNA reduction (knockdown) [9, 17] [%] | % KD; percent GPC2 mRNA reduction (knockdown) [9, 18] [%] | % KD; percent GPC2 mRNA reduction (knockdown) [9, 19] [%] | also measured
GPC2 siRNA 7: siRNA duplex: sense CUCCUUUCUGGUUCACACA[dT][dT] (SEQ ID NO: 215), anti-sense UGUGUGAACCAGAAAGGAG[dT][dT] (SEQ ID NO: 216) (sense rCrUrCrCrUrUrUrCrUrGrGrUrUrCrArCrArCrAdTdT; antisense rUrGrUrGrUrGrArArCrCrArGrArArArGrGrArGdTdT; listed as Homo sapiens) | 30 | does not increase sensitivity | 20 | increases sensitivity to | 200 | increases sensitivity to | 130 | increases sensitivity to | 470 | increases sensitivity to | 8140 | increases sensitivity to | 2500 | increases sensitivity to | 15000 | 65 | 30 | 20 | 70 | 73 | Data Summary: effect of knockdown on sensitivity to doxorubicin ([1]; SH-SY5Y): KD with sequence 7 increases; % KD; percent GPC2 mRNA reduction (knockdown) [9, 20]: 70%; % KD; percent GPC2 mRNA reduction (knockdown) [9, 21]: 69%; % KD; percent GPC2 mRNA reduction (knockdown) [9, 22]: 64%; Data Summary: effect of knockdown on sensitivity to cyclophosphamide [10]: increases sensitivity to; IC50 [10]: 940 nM; Data Summary: effect of knockdown on sensitivity to cyclophosphamide [11]: increases sensitivity to; IC50 [11]: 1200 nM; Data Summary: effect of knockdown on sensitivity to cyclophosphamide [12]: increases sensitivity to; IC50 [12]: 410 nM; Data Summary: effect of knockdown on sensitivity to cyclophosphamide [13]: increases sensitivity to; IC50 [13]: 10000 nM; Time for which reduced GPC2 mRNA expression was sustained [14, 23]: 72 h; Time point at which GPC2 mRNA knockdown was first observed [14]: 24 h; Degree of GPC2 knockdown among sequences 3, 5, 6-11 [14]: greater; Time for which reduced GPC2 mRNA expression was sustained [14, 24]: 72 h; Time for which reduced GPC2 mRNA expression was sustained [14, 25]: 72 h
GPC2 siRNA 5: siRNA duplex: sense CUCAGUAGCCCAGCACUCU[dT][dT] (SEQ ID NO: 211), anti-sense AGAGUGCUGGGCUACUGAG[dT][dT] (SEQ ID NO: 212) (sense CUCAGUAGCCCAGCACUCUTT; antisense AGAGUGCUGGGCUACUGAGTT; sugars from the 5' end r19 d2, backbone not given here; listed as Homo sapiens) | 50 | does not increase sensitivity | 20 | increases sensitivity to | 20 | increases sensitivity to | 250 | increases sensitivity to | 1550 | increases sensitivity to | 10400 | increases sensitivity to | 11000 | increases sensitivity to | 100000 | 55 | 35 | 8 | 70 | 75 | % KD; percent GPC2 mRNA reduction (knockdown) [9, 20]: 75%; % KD; percent GPC2 mRNA reduction (knockdown) [9, 21]: 68%; % KD; percent GPC2 mRNA reduction (knockdown) [9, 22]: 70%; Data Summary: effect of knockdown on sensitivity to cyclophosphamide [10]: increases sensitivity to; IC50 [10]: 300 nM; Data Summary: effect of knockdown on sensitivity to cyclophosphamide [11]: increases sensitivity to; IC50 [11]: 450 nM; Data Summary: effect of knockdown on sensitivity to cyclophosphamide [12]: increases sensitivity to; IC50 [12]: 1800 nM; Data Summary: effect of knockdown on sensitivity to cyclophosphamide [13]: increases sensitivity to; IC50 [13]: 20000 nM; Time for which reduced GPC2 mRNA expression was sustained [14, 23]: 72 h; Time point at which GPC2 mRNA knockdown was first observed [14]: 24 h; Degree of GPC2 knockdown among sequences 3, 5, 12-15 ([14]; CHP212, SKNAS and SHSY5Y neuroblastoma cell lines, 96 hour incubation (FIG. 3A)): greater; Degree of GPC2 knockdown among sequences 3, 5, 6-11 [14]: greater; Time for which reduced GPC2 mRNA expression was sustained [14, 24]: 72 h; Time for which reduced GPC2 mRNA expression was sustained [14, 25]: 72 h
